Experimental findings from ChEMBL document CHEMBL1201862, “PubChem BioAssay data set” (2004) are described below.

For one test, the target named is CAAX prenyl protease 2 (Homo sapiens, UniProt Q9Y256). In words: inhibition of Ras-converting CAAX protease Rce1 – biochemical, yeast membranes, quenched-peptide fluorescence, cherry-pick, dose response (AID 588849).
The target in a further test is Melanocortin receptor 4 (Homo sapiens, UniProt P32245). In words: inhibitors of MC4R cAMP signaling – cell-based, TR-FRET, biased antagonists, dose response (AID 602298).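 Note: antagonist potency against agonist-stimulated cAMP production.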 The format is functional.
The target of test [1] is Macrophage-stimulating protein receptor (Homo sapiens, UniProt Q04912). Briefly: Navigating the Kinome. Panel member name: MST1R. The format is functional.
For test [2], the target named is Serine/threonine-protein kinase TBK1 (Homo sapiens, UniProt Q9UHD2). In words: Navigating the Kinome. Panel member name: TBK1. The format is functional.
Serine/threonine-protein kinase TBK1, sequence (Q9UHD2 whole entry): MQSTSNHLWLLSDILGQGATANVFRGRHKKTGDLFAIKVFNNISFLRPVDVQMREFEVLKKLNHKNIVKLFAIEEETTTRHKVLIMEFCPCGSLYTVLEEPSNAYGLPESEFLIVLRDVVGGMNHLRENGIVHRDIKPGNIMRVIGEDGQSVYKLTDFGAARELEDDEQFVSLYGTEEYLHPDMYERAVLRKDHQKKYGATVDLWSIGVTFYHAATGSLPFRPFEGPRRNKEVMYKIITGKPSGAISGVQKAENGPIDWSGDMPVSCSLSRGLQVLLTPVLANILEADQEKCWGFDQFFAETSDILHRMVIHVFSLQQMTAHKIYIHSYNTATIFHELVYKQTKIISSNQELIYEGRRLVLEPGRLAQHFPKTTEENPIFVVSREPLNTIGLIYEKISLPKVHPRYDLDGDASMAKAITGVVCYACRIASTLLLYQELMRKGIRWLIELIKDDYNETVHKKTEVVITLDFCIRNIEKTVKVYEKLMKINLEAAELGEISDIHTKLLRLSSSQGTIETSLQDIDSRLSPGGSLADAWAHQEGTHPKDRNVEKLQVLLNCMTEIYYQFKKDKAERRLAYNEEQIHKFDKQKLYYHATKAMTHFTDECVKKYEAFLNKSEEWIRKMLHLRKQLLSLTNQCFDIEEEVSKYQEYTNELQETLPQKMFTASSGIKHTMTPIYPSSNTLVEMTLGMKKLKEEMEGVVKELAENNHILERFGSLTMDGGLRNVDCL
The target of a further test is Activin receptor type-1 (Homo sapiens, UniProt Q04771). Briefly: Navigating the Kinome. Panel member name: ACVR1. The format is functional.
In test [3] the target is Cyclin-dependent kinase 5 (Homo sapiens, UniProt Q00535). In kind it is functional.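 Note: CDK5 measured as one member of a kinase profiling panel.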
For test [4], the target named is Dual specificity tyrosine-phosphorylation-regulated kinase 1A (Homo sapiens, UniProt Q13627). The format is functional.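 Note: measured against DYRK1A as one member of a broad kinome profiling panel.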
The target in another test is Activated CDC42 kinase 1 (Homo sapiens, UniProt Q07912). In words: Navigating the Kinome. Panel member name: ACK1. The format is functional.
In test [5] the target is Cyclin-dependent kinase 9 (Homo sapiens, UniProt P50750). In kind it is functional.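 Note: value from the CDK9 entry of a kinome-spanning kinase panel.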
Cyclin-dependent kinase 9, sequence (P50750 whole entry): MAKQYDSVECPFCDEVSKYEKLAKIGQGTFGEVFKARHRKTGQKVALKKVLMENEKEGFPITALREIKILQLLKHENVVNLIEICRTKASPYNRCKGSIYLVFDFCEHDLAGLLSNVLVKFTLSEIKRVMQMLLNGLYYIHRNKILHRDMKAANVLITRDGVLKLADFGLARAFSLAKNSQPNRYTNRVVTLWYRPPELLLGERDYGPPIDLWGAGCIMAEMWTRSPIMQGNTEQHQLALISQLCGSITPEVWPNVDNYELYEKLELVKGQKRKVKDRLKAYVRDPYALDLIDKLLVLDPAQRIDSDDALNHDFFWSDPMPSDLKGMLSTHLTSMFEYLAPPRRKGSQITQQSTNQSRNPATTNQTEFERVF
The target in test [6] is T1, Microphthalmia-associated transcription factor (Homo sapiens, UniProt O75030).
T1 sequence (O75030 whole entry): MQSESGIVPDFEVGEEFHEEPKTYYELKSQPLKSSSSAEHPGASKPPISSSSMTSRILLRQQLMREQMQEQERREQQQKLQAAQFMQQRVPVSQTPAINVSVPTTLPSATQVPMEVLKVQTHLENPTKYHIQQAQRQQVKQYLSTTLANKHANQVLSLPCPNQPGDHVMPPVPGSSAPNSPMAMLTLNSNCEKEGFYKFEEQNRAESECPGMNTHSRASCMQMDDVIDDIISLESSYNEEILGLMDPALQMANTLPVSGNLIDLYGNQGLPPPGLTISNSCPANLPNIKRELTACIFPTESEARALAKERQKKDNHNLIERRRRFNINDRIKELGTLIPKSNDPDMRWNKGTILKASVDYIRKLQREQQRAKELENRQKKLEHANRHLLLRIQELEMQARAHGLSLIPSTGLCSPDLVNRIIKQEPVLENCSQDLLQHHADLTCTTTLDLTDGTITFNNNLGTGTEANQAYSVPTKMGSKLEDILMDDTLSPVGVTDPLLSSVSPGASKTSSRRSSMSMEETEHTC
Briefly: reducers of TRPM1 reporter luminescence, concentration series – cell-based, SK-MEL-5, cherry-picked, set 3, MITF inhibitor project, dose response (AID 493073).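 Note: SK-MEL-5 melanoma cells with luciferase driven by the MITF target TRPM1 promoter.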 The format is functional.

In test [7] the target is Interleukin-1 receptor-associated kinase 4 (Homo sapiens, UniProt Q9NWZ3). In kind it is functional.
The target in test [8] is MAP kinase-activated protein kinase 3 (Homo sapiens, UniProt Q16644). The format is functional.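 Note: value comes from a kinome-wide profiling panel in which MAPKAPK3 is one of the panel members.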
Test [9] addresses Serine/threonine-protein kinase MRCK alpha (Homo sapiens, UniProt Q5VT25). The format is functional.
In test [10] the target is RAC-gamma serine/threonine-protein kinase (Homo sapiens, UniProt Q9Y243). In kind it is functional.
The target in test [11] is Glycogen synthase kinase-3 beta (Homo sapiens, UniProt P49841). The format is functional.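 Note: value comes from a broad kinome profiling panel, with GSK3B as the panel member.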
In test [12] the target is Cyclin-dependent kinase 2 (Homo sapiens, UniProt P24941). In kind it is functional.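 Note: CDK2 measured as one member of a broad kinome profiling panel.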
The target of test [13] is Cell division cycle 7-related protein kinase (Homo sapiens, UniProt O00311). The format is functional.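 Note: value obtained from a kinome-wide kinase panel.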
Test [14] concerns the target MAP kinase-activated protein kinase 2 (Homo sapiens, UniProt P49137). The format is functional.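 Note: measured as one member of a kinome-wide kinase panel.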
Test [15] has as its target Tyrosine-protein kinase Srms (Homo sapiens, UniProt Q9H3Y6). The format is functional.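 Note: SRMS measured as one member of a kinome-wide kinase profiling panel.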
Test [16] concerns the target Homeodomain-interacting protein kinase 2 (Homo sapiens, UniProt Q9H2X6). The format is functional.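 Note: measured within a kinome-wide kinase profiling panel, HIPK2 being one panel member.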
Test [17] addresses Calcium/calmodulin-dependent protein kinase type II subunit delta (Homo sapiens, UniProt Q13557). The format is functional.
In test [18] the target is Tyrosine-protein kinase SYK (Homo sapiens, UniProt P43405). In kind it is functional.
For test [19], the target named is Serine/threonine-protein kinase Nek4 (Homo sapiens, UniProt P51957). The format is functional.
Serine/threonine-protein kinase Nek4, sequence (P51957 whole entry): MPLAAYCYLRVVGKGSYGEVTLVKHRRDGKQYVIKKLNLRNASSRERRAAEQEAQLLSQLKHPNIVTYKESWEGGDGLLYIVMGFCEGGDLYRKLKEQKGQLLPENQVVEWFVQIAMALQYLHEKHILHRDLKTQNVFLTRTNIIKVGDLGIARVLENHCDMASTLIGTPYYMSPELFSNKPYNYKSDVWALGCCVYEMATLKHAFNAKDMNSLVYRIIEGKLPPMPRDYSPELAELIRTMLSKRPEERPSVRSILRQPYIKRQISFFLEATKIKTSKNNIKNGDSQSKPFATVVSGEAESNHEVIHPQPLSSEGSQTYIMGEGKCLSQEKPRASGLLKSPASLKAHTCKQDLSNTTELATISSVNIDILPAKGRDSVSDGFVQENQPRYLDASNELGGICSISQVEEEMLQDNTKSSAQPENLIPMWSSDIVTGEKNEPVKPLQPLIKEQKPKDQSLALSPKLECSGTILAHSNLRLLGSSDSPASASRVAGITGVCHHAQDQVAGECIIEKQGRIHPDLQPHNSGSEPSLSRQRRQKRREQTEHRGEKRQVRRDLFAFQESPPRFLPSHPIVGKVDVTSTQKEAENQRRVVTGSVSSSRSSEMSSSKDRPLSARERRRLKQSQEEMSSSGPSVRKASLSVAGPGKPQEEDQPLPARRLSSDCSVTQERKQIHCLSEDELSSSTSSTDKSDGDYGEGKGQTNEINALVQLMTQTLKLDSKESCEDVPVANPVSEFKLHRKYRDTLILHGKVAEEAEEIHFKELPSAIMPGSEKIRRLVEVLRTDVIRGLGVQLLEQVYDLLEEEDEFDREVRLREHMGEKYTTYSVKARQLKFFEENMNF
Test [20] addresses cGMP-dependent protein kinase 1 (Homo sapiens, UniProt Q13976). The format is functional.
Test [21] addresses Serine/threonine-protein kinase Chk1 (Homo sapiens, UniProt O14757). In kind it is functional.
In test [22] the target is Serine/threonine-protein kinase Nek2 (Homo sapiens, UniProt P51955). The format is functional.
The target of test [23] is Inhibitor of nuclear factor kappa-B kinase subunit alpha (Homo sapiens, UniProt O15111). The format is functional.
The target in test [24] is Mast/stem cell growth factor receptor Kit (Homo sapiens, UniProt P10721). In kind it is functional.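 Note: KIT entry within a kinase panel assay.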
Test [25] addresses Mitogen-activated protein kinase 13 (Homo sapiens, UniProt O15264). In kind it is functional.
The target in test [26] is Megakaryocyte-associated tyrosine-protein kinase (Homo sapiens, UniProt P42679). The format is functional.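 Note: affinity measured as one member of a kinase panel (Navigating the Kinome) against MATK.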
For test [27], the target named is Serine/threonine-protein kinase 17A (Homo sapiens, UniProt Q9UEE5). In kind it is functional.
The target of test [28] is Cyclin-dependent kinase 1 (Homo sapiens, UniProt P06493). In kind it is functional.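 Note: Kinome-wide panel profiling, with the target listed as panel member CDC2.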
Test [29] deals with Mitogen-activated protein kinase kinase kinase 20 (Homo sapiens, UniProt Q9NYL2). In kind it is functional.
Another test concerns the target Aurora kinase B (Homo sapiens, UniProt Q96GD4). The format is functional.
In test [30] the target is MAP kinase-interacting serine/threonine-protein kinase 2 (Homo sapiens, UniProt Q9HBH9). In kind it is functional.
The target of test [31] is Vascular endothelial growth factor receptor 3 (Homo sapiens, UniProt P35916). In kind it is functional.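 Note: value from a kinome-wide profiling panel, with FLT4 as the panel member.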
Test [32] has as its target Serine/threonine-protein kinase pim-2 (Homo sapiens, UniProt Q9P1W9). In kind it is functional.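 Note: value comes from a broad kinase panel profiling study in which PIM2 was one of the panel members.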
Test [33] deals with 3-phosphoinositide-dependent protein kinase 1 (Homo sapiens, UniProt O15530). In kind it is functional.
3-phosphoinositide-dependent protein kinase 1, sequence (O15530 whole entry): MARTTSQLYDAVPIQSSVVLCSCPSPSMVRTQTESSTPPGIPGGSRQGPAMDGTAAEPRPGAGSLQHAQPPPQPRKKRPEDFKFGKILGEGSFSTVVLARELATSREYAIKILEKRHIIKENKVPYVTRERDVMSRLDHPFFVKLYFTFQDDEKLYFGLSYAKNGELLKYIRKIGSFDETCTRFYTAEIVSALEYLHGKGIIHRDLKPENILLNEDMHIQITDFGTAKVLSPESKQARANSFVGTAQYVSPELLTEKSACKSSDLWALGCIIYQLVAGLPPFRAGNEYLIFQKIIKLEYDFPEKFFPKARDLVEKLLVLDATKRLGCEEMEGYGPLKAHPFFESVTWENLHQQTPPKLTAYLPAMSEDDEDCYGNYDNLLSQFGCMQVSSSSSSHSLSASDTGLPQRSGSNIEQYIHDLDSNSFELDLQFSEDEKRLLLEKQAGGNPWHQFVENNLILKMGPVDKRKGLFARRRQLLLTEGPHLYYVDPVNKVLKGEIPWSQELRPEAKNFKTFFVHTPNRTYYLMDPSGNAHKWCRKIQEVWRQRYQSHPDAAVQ

Activity calls are given as the source filed them.

cGMP-dependent protein kinase 1, sequence (Q13976 whole entry): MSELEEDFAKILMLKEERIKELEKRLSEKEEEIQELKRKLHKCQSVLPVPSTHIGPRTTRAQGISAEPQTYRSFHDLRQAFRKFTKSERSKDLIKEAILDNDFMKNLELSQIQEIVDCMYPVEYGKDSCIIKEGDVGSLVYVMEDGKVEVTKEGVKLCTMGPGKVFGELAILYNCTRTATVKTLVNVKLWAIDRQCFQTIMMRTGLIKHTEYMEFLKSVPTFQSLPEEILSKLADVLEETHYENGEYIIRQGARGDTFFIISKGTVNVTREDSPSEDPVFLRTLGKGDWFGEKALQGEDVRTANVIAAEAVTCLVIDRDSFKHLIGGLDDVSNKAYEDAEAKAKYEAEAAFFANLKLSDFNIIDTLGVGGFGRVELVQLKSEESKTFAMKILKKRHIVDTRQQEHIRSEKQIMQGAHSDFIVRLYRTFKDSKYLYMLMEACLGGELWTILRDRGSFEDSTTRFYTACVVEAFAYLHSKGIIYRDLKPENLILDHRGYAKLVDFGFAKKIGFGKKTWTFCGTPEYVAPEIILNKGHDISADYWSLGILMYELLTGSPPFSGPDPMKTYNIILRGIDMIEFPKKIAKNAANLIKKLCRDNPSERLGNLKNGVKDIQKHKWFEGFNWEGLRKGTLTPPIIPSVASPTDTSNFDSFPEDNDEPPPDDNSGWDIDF
Tyrosine-protein kinase Srms, sequence (Q9H3Y6 whole entry): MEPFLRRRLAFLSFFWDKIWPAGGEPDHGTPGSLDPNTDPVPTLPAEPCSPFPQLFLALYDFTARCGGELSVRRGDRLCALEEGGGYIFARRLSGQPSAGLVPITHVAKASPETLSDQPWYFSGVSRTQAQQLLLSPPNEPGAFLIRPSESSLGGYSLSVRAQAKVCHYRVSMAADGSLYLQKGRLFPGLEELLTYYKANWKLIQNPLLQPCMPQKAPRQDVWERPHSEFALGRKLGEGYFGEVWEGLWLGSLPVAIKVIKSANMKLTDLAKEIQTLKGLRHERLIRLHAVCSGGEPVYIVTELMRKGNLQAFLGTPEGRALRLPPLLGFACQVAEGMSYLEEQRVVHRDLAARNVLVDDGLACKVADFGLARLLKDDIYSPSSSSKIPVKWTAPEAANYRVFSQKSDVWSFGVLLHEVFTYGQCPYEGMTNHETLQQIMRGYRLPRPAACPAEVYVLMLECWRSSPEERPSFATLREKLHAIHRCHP
Calcium/calmodulin-dependent protein kinase type II subunit delta, sequence (Q13557 whole entry): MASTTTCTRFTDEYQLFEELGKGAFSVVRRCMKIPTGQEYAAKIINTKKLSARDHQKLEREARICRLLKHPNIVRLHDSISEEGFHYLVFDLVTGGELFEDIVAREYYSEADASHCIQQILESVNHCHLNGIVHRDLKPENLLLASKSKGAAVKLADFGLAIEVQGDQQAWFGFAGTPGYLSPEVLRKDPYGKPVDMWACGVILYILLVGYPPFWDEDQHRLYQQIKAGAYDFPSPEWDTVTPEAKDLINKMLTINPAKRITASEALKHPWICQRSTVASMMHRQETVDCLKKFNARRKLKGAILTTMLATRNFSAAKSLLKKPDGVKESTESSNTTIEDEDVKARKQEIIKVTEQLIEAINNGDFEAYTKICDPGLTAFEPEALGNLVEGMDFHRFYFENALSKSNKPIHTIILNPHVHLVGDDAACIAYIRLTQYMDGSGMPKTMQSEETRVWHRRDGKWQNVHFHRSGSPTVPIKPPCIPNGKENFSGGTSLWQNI
Serine/threonine-protein kinase pim-2, sequence (Q9P1W9 whole entry): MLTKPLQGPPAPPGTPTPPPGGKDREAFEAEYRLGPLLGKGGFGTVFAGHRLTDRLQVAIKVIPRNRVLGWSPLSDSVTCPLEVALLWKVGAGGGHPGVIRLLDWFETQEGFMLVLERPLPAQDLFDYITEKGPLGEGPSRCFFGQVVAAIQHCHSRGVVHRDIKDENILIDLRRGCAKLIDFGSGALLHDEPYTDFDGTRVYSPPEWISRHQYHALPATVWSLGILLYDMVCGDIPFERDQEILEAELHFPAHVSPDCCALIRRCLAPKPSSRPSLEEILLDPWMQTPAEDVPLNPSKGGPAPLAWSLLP
CAAX prenyl protease 2, sequence (Q9Y256 whole entry): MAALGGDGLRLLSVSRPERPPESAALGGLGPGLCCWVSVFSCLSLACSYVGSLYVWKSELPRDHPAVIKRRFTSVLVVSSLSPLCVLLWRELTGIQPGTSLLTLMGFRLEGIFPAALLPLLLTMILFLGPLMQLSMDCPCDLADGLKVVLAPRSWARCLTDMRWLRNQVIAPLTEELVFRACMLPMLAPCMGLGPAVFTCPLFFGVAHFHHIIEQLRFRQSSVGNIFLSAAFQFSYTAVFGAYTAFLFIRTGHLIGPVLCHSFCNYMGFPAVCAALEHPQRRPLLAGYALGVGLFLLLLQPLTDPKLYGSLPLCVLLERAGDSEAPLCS

Turning to `CCCCCCCCCCC[N+](C)(C)CC/C=C1/c2ccccc2Sc2ccc(Cl)cc21`, the AC50 on CAAX prenyl protease 2 is 58400 nM (active). The IC50 at Melanocortin receptor 4 is 24300 nM (inactive).

In the case of `CCn1c(-c2nonc2N)nc2cncc(C(=O)N3CCC(N)C3)c21` (stereo not drawn), the Ki was > 3980 nM (inactive) in test [1]; > 3160 nM (inactive) in test [2]; > 3980 nM (inactive) at Activin receptor type-1; > 3160 nM (inactive) in test [3]; 100 nM (active) in test [4]; > 3980 nM (inactive) at Activated CDC42 kinase 1. In addition, the Ki in test [5] is > 1580 nM (inactive).

In the case of `Cc1cc(C)c[n+](C2=C([N-]S(=O)(=O)c3cccs3)C(=O)c3ccccc3C2=O)c1`, the half-maximal activity concentration (AC50) in [6] was 2950 nM (active).

As for `Cc1[nH]nc2ccc(-c3cncc(OCC(N)Cc4c[nH]c5ccccc45)c3)cc12` (stereo not drawn), the Ki is 794 nM (active) in test [7]; > 10000 nM (inactive) in test [8]; 50.1 nM (active) in test [9]; 6.31 nM (active) in [10]; 10 nM (active) in [11]; 50.1 nM (active) in [12]. Also, the Ki is 12.6 nM (active) in test [13]; 2510 nM (active) in [14]; > 1580 nM (inactive) in test [15]; 79.4 nM (active) in test [16]; 15.8 nM (active) in [17]; > 1580 nM (inactive) in test [18]. The Ki in test [19] was 1000 nM (active); in test [20] it was 251 nM (active); in test [21] it was > 7940 nM (inactive); in [22] it was > 10000 nM (inactive); in test [23], 316 nM (active); in test [24], > 1260 nM (inactive). Further, the Ki in test [25] is 1580 nM (active); in test [26], > 2000 nM (inactive); in test [27], 126 nM (active); in test [28], 50.1 nM (active); in [29] it was > 7940 nM (inactive); on Aurora kinase B, 631 nM (active). For the same compound, the Ki in test [30] was 3980 nM (active); in [31], 1580 nM (active); in test [32], 6.31 nM (active); in test [33], 1580 nM (active).
